Measured values: ChEMBL document CHEMBL4732086, “Targeting nuclear protein TDP-43 by cell division cycle kinase 7 inhibitors: A new therapeutic approach for amyotrophic lateral sclerosis” (Eur J Med Chem, 2021)
Activity calls are given as the source filed them. No cut-off for these calls is given here.

Experiments:
[1] = molecular target: CDC7/DBF4 (Cell division cycle 7-related protein kinase/Activator of S phase kinase) (Homo sapiens, UniProt O00311); assay: Inhibition of recombinant human CDC7/Dbf4 expressed in baculovirus infected Sf9 insect cells assessed as inhibition of fluorescein labelled substrate phosphorylation in presence of ATP measured after 60 mins by TR-FRET assay
Sequence of CDC7/DBF4 (Cell division cycle 7-related protein kinase/Activator of S phase kinase) (Q9UBU7 whole entry): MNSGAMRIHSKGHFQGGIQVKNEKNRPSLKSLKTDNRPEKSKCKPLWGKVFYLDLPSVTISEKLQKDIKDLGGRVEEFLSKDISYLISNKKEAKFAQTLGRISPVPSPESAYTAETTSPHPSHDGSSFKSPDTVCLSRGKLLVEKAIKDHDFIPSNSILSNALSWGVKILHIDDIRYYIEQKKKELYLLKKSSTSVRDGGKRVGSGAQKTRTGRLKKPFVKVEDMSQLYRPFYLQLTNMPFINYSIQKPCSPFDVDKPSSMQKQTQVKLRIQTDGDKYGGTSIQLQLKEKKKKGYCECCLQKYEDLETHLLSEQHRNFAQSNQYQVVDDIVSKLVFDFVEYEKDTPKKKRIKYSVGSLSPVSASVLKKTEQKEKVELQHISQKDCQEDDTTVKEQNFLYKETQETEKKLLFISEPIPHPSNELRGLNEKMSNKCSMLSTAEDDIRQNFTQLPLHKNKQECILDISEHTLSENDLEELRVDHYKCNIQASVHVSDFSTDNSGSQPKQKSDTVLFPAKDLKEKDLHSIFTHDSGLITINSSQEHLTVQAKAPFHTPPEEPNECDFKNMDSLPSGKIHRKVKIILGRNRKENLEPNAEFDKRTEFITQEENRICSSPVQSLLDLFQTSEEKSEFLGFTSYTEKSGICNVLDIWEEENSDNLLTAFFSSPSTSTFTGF
Sequence of CDC7/DBF4 (Cell division cycle 7-related protein kinase/Activator of S phase kinase) (O00311 whole entry): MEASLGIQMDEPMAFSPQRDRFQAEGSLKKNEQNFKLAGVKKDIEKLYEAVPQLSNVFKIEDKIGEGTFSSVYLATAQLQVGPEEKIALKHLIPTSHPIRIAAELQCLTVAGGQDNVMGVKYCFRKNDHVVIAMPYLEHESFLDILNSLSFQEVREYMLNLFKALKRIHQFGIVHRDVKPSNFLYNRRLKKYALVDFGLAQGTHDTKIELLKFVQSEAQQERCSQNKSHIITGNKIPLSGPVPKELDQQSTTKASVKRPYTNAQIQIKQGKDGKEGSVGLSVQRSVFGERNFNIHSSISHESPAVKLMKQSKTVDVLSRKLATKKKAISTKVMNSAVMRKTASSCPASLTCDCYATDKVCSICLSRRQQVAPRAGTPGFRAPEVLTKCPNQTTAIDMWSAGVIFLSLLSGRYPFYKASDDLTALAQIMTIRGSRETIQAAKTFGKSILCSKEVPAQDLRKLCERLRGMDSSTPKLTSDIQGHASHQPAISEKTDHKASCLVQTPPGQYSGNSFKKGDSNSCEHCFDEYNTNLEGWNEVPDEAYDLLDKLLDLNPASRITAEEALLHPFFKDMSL

[2] = molecular target: Cell division cycle 7-related protein kinase (Homo sapiens) (UniProt O00311); assay: Inhibition of human CDC7 in human SH-SY5Y cells assessed as prevention of ethacrynic acid-induced cell death preincubated for 1 hr followed by incubation with ethacrynic acid for 24 hrs measured at 10 uM by MTT assay relative to control; assay type: cell-based
Sequence of Cell division cycle 7-related protein kinase (Homo sapiens) (O00311 whole entry, looked up): as the sequence (O00311 whole entry) above

[3] = molecular target: CDC7/DBF4 (Cell division cycle 7-related protein kinase/Activator of S phase kinase) (Homo sapiens) (UniProt Q9UBU7+O00311); assay: Inhibition of recombinant human CDC7/Dbf4 expressed in baculovirus infected Sf9 insect cells assessed as inhibition of fluorescein labelled substrate phosphorylation in presence of ATP at 10 uM measured after 60 mins by TR-FRET assay
Sequence of CDC7/DBF4 (Cell division cycle 7-related protein kinase/Activator of S phase kinase) (Homo sapiens) (O00311 whole entry, looked up): as the sequence (O00311 whole entry) above
Sequence of CDC7/DBF4 (Cell division cycle 7-related protein kinase/Activator of S phase kinase) (Homo sapiens) (Q9UBU7 whole entry, looked up): as the sequence (Q9UBU7 whole entry) above

Row | Compound | IC50 [1] | inhibition [3] | inhibition [2]
1 | O=[N+]([O-])c1ccc(CSc2ncnc3[nH]cnc23)cc1 | 0.13 µM |  | Active
2 | O=C(CSc1[nH]cnc2ncnc1-2)c1ccc([N+](=O)[O-])cc1 | 3.11 µM |  | 
3 | O=C(CSc1ncnc2[nH]cnc12)c1ccc(Br)cc1 | 2.12 µM |  | 
4 | Clc1ccccc1CCSc1ncnc2[nH]cnc12 | 0.19 µM |  | Active
5 | Clc1ccc(CSc2[nH]cnc3ncnc2-3)cc1 | 0.18 µM |  | Active
6 | Clc1ccccc1CSc1ncnc2c1ncn2Cc1ccccc1Cl |  | 7% | 
7 | Ic1ccccc1CSc1ncnc2[nH]cnc12 | 0.58 µM |  | Active
8 | O=[N+]([O-])c1cccc(CSc2ncnc3[nH]cnc23)c1 | 0.19 µM |  | 
9 | N#Cc1ccc(CSc2ncnc3[nH]cnc23)cc1 | 0.29 µM |  | 
10 | c1ccc(CSc2ncnc3c2ncn3Cc2ccccc2)cc1 |  | 0% | 
11 | FC(F)(F)c1ccccc1CSc1ncnc2c1ncn2Cc1ccccc1C(F)(F)F |  | 9% | 
12 | Clc1ccccc1CSc1ncnc2[nH]cnc12 | 0.09 µM |  | Active
13 | FC(F)(F)c1cccc(CSc2ncnc3[nH]cnc23)c1 | 0.32 µM |  | Active
14 | OCc1ccc(CSc2ncnc3[nH]cnc23)cc1 | 0.3 µM |  | 
15 | Ic1ccc(CSc2ncnc3[nH]cnc23)cc1 | 0.3 µM |  | Active
16 | Clc1cccc(CCSc2ncnc3[nH]cnc23)c1 | 0.3 µM |  | Active

Row | Compound | IC50 [1] | inhibition [3] | inhibition [2]
17 | CSc1ccc(CSc2ncnc3[nH]cnc23)cc1 | 0.14 µM |  | Active
18 | N#Cc1cccc(CSc2ncnc3[nH]cnc23)c1 | 0.34 µM |  | 
19 | Brc1cccc(CSc2ncnc3[nH]cnc23)c1 | 0.13 µM |  | 
20 | COc1ccc(Sc2ncnc3[nH]cnc23)cc1 | 1.72 µM |  | 
21 | c1ccc(CSc2ncnc3[nH]ccc23)cc1 | 0.23 µM |  | Active
22 | Clc1cccc(CSc2ncnc3c2ncn3Cc2cccc(Cl)c2)c1 |  | 30% | 
23 | FC(F)(F)c1ccccc1CSc1ncnc2[nH]cnc12 | 0.25 µM |  | Active
24 | Clc1ccc(CCSc2ncnc3c2ncn3CCc2ccc(Cl)cc2)cc1 |  | 3% | 
25 | c1ccc(CSc2ncnc3sccc23)cc1 |  | 18% | 
26 | Brc1cccc(CSc2ncnc3sccc23)c1 |  | 11% | 
27 | Brc1ccc(Sc2ncnc3[nH]cnc23)cc1 | 1.38 µM |  | 
28 | FC(F)(F)c1ccc(CSc2ncnc3[nH]cnc23)cc1 | 0.36 µM |  | Active
29 | Fc1ccc(CCSc2ncnc3c2ncn3CCc2ccc(F)cc2)cc1 |  | 12% | 
30 | Brc1ccc(COc2ncnc3[nH]cnc23)cc1 | 0.91 µM |  | Active
31 | Clc1cccc(CCSc2ncnc3c2ncn3CCc2cccc(Cl)c2)c1 |  | 8% | 

More lines, main results first:

Row | IC50 [1] | inhibition [3] | Compound | inhibition [2]
32 | 0.08 µM |  | Ic1cccc(CSc2ncnc3[nH]cnc23)c1 | Active
33 | 0.39 µM |  | Fc1ccc(CCSc2ncnc3[nH]cnc23)cc1 | Active
34 | 0.39 µM |  | Brc1cccc(CSc2ncnc3[nH]ccc23)c1 | 
35 | 3.06 µM |  | Clc1cccc(CNc2ncnc3nc[nH]c23)c1 | 
36 | 0.44 µM |  | Brc1ccc(CSc2[nH]cnc3ncnc2-3)cc1 | Active
37 | 0.19 µM |  | Clc1cccc(COc2ncnc3[nH]cnc23)c1 | Active
38 | 0.14 µM |  | Clc1ccc(CCSc2ncnc3[nH]cnc23)cc1 | Active
39 |  | 4% | Clc1ccccc1CCSc1ncnc2c1ncn2CCc1ccccc1Cl | 
40 | 0.47 µM |  | CC(=O)Nc1ccc(CSc2ncnc3[nH]cnc23)cc1 | 
41 |  | 4% | Ic1ccccc1CSc1ncnc2c1ncn2Cc1ccccc1I | 
42 | 0.17 µM |  | c1ccc(COc2[nH]cnc3ncnc2-3)cc1 | 
43 | 0.24 µM |  | COc1cccc(CSc2ncnc3[nH]cnc23)c1 | Active
44 | 4.15 µM |  | O=C(CSc1[nH]cnc2ncnc1-2)c1ccc(Cl)cc1 | 
45 | 0.36 µM |  | Fc1cccc(CSc2ncnc3[nH]cnc23)c1 | Active
